Positions of bridges follow the written chain, without caps; N, C: chain ends. 'PEG'‑succ = not defined here
Tests used:
[1] = tested on: BCL, turnor cell line; conditions: disulfide bond between the cysteines; Terskikh, et al.; cited from earlier work
[2] = Solubility in solvents; assay type: physicochemical
[3] = tested on: elastase; assay: Polyamide stability to protease digestion, HPLC analysis (elastase); conditions: 24 hours; 1 mg/ml in 1% ammonium bicarbonate, enzyme:substrate 1:100, 37° C.
Description: (§1) The compounds produced in Examples 8 and 9 were separately dissolved at 1 mg/ml in a 1% ammonium bicarbonate solution. In separate tubes, these solutions were treated with trypsin, chymotrypsin and elastase (enzyme:substrate ratio 1:100, 37° C.). Aliquots (20 μl) were withdrawn at intervals and analyzed by HPLC.

[4] = tested on: trypsin; assay: Polyamide stability to protease digestion, HPLC analysis (trypsin); conditions: 24 hours; 1 mg/ml in 1% ammonium bicarbonate, enzyme:substrate 1:100, 37° C.
Description: as §1

[5] = tested on: chymotrypsin; assay: Polyamide stability to protease digestion, HPLC analysis (chymotrypsin); conditions: 24 hours; 1 mg/ml in 1% ammonium bicarbonate, enzyme:substrate 1:100, 37° C.
Description: as §1

[6] = tested on: human leukemic UT-7 EPO dependent cell line; assay: EPO activity in a cell culture assay (UT-7 EPO dependent cell line); assay type: cell-based; conditions: for ED50 (effective dose giving 50% of maximum response): UT-7 EPO dependent cell line
Description: Precise Length EMP-dimers with linkers of different lengths were assayed for EPO activity in a cell culture assay (human leukemic UT-7 EPO dependent cell line). Recombinant EPO and the EMP monomer peptides were included as controls, where the monomer is designated as “mono” in Table 1.
The short linker in the precise length EMP-dimer (designated “s” in Table 1) was -(‘PEG’-succ)2-‘PEG’-(succ-‘PEG’)2-. The medium linker (designated “m” in Table 1) was -(‘PEG’-succ)6-‘PEG’-(succ-‘PEG’)6- and the long linker (designated “1” in Table 1) was -(‘PEG’-succ)8-‘PEG’-(succ-‘PEG’)8-.
Table 1 presents the mean OD's for each peptide sample.
Table 2 presents the mean OD's for recombinant EPO sample.
It was clear, from the results presented above, that the ED50 (effective dose giving 50% of maximum response) values were as presented in Table 3.

## ADGACRNPWC (H-ADGACRNPWC-{'PEG'‑succ-'PEG'‑succ-'PEG'‑succ-'PEG'‑succ-'PEG'‑succ-'PEG'‑succ-'PEG'‑succ-'PEG'‑succ-Lys(AoA)-NH2}; disulfide 5-10 (inferred); reading uncertain; also: four copies oximated to fluorescein-labelled Lys2Lys template (tetrameric chemobody)) [phage-derived peptide]
[1]
  binding to the BCL tumor cell line: bound

## Fmoc-Ser(But)-(‘PEG’-succ)8-Abu-OH
[2]
  solubility in the water/acetonitrile/TFA HPLC solvent system: perfectly soluble

## H-PQPQPKPQPQPQPQPKPQPKPEPE-NH2 [SEQ ID NO:5]
[3]
  digestion by elastase: stable
[4]
  digestion by trypsin: digested extensively
[5]
  digestion by chymotrypsin: stable

## Recombinant EPO: recombinant erythropoietin, control
[6]; EPO 1.85 ng/ml
  mean OD: .878
[6]; EPO 5.56 ng/ml
  mean OD: .885
[6]; EPO 16.7 ng/ml
  mean OD: .920
[6]; EPO 50 ng/ml
  mean OD: .917
[6]; EPO .00254 ng/ml
  mean OD: .101
[6]; EPO .00762 ng/ml
  mean OD: .108
[6]; EPO .0229 ng/ml
  mean OD: .124
[6]; EPO .0686 ng/ml
  mean OD: .179
[6]; EPO .206 ng/ml
  mean OD: .362
[6]; EPO .617 ng/ml
  mean OD: .650
[6]
  ED50 (effective dose giving 50% of maximum response): 25 pM

## amide-GRLPQCVWTMPGMHCAYLGG-COCH2ON═CH—CO-(‘PEG’-succ)12-‘PEG’-CH═NOCH2CO-GGLYACHMGPMTWVCQPLRG-amide [EMP-m (medium dimer)]
[6]
  ED50 (effective dose giving 50% of maximum response): 1 pM
[6]; concentration 1 × 10^−1 μM
  mean OD: .884
[6]; concentration 1.11 × 10^−2 μM
  mean OD: .876
[6]; concentration 1.24 × 10^−3 μM
  mean OD: .916
[6]; concentration 1.37 × 10^−4 μM
  mean OD: .760
[6]; concentration 1.52 × 10^−5 μM
  mean OD: .597
[6]; concentration 1.69 × 10^−6 μM
  mean OD: .641
[6]; concentration 1.88 × 10^−7 μM
  mean OD: .363
[6]; concentration 2.09 × 10^−8 μM
  mean OD: .287
[6]; concentration 2.32 × 10^−9 μM
  mean OD: .246
[6]; concentration 3.33 × 10^−2 μM
  mean OD: .902
[6]; concentration 3.70 × 10^−3 μM
  mean OD: .888
[6]; concentration 4.12 × 10^−4 μM
  mean OD: .805
[6]; concentration 4.57 × 10^−5 μM
  mean OD: .637
[6]; concentration 5.08 × 10^−6 μM
  mean OD: .712
[6]; concentration 5.65 × 10^−7 μM
  mean OD: .469
[6]; concentration 6.27 × 10^−8 μM
  mean OD: .350
[6]; concentration 6.97 × 10^−9 μM
  mean OD: .280

## erythropoietin mimetic peptide monomer, GGLYACHMGPMTWVCQPLRG (SEQ ID NO:1), control [EMP monomer, reference compound]
[6]
  ED50 (effective dose giving 50% of maximum response): 20,000 pM
[6]; concentration 1 × 10^−1 μM
  mean OD: .878
[6]; concentration 1.11 × 10^−2 μM
  mean OD: .373
[6]; concentration 1.24 × 10^−3 μM
  mean OD: .078
[6]; concentration 1.37 × 10^−4 μM
  mean OD: .089
[6]; concentration 3.33 × 10^−2 μM
  mean OD: .673
[6]; concentration 3.70 × 10^−3 μM
  mean OD: .210
[6]; concentration 4.12 × 10^−4 μM
  mean OD: .078

Source: patent publication US6552167B1, “Polyamide chains of precise length” (Gryphon Therapeutics, Inc., priority 1998, dated 2003)
